Here are results for two compounds from patent publication US9248130B2, “Methods and compositions for treating thyroid-related medical conditions with reduced folates” (priority 2009, dated 2016).

Holding throughout (type): in vivo, human
Assay [1] in a line: Physical, behavioral and social skills of patient with cerebrospinal folate deficiency (case report). Particulars: patient Example 2; after treatment.
Assay [2] is described as follows: Cerebrospinal folate levels in patient with cerebrospinal folate deficiency (case report). Particulars: patient Example 2; folinic acid 5 mg twice per day; within approximately four months; rose from 32 L; preferred range 40-128. How it is done: Example 1 was tested for cerebrospinal folate deficiency approximately four months after Example 2's testing. […] Studies have shown that the earlier the anemias associated with cerebrospinal folate deficiency are addressed, the better the adversely impacted individual can overcome more long-term effects of the associated folate deficiency.
After Example 2's diagnosis, Example 2 was placed on 5-methyltetrahydrofolate in the form of folinic acid (5 mg twice per day).

Assay [3] in a line: Hematological response (reticulocytes) in hypothyroid infant patient (case report). Particulars: patient Example 1; additional nutritional supplement containing 2 mcg of vitamin B12. An excerpt: Example 1 and Example 2 received different nutritional supplementation with respect to vitamin B12. Although Example 2 did receive the same infant milk formula that Example 1 received, which infant milk formula contained vitamin B12, Example 2 received less of the infant milk formula than Example 1, and Example 2 received in lieu of the infant milk formula more of the breast milk from the hypothyroid […]. Example 1 also received an additional multivitamin nutritional supplement that included 2 mcg of vitamin B12.

Regarding `Nc1nc2c(c(=O)[nH]1)N(C=O)C(CNc1ccc(C(=O)N[C@@H](CCC(=O)O)C(=O)O)cc1)CN2` (stereo partly drawn) [folinic acid, 6(R,S)-5-formyltetrahydrofolate], the “physical, behavioral and social skills” value in assay [1] is “showed improvement”. Also, the cerebrospinal folate levels result in assay [2] is listed as “approximately 88”.

Take cobalamin [vitamin B12]: in assay [3], the “hematological response: reticulocytes” value was “moving from below normal to normal”.
